# Laboratory results taken from PMC12177922, “In Vivo Ribosome-Amplified MetaBOlism, RAMBO, Effect Observed by Real Time Pulse Chase, RTPC, NMR Spectroscopy” (Biochemistry, 2025).
# How the values were obtained:
# Type in all cases: biochemical
# [1] = target: T1, PFK-A (Geobacillus stearothermophilus, UniProt P00512); assay: direct 1H NMR kinetic assay (FBP peak); details: substrate inhibition; 1 mM F6P, 1 nM enzyme, pH 7.5, 10 mM sodium phosphate, 50 mM KCl, 10 mM MgCl2, 10 °C, no ribosomes
# T1 construct: gene pfkA; commercial lyophilized enzyme (Sigma-Aldrich)
# [2] = target: T2, PYK-F (Escherichia coli, UniProt P0AD61); assay: direct 1H NMR kinetic assay (pyruvate methyl peak); details: 2 mM PEP, 4 mM ADP, pH 7.5, 10 °C, no ribosomes; 0-8x of 50 μg/mL
# T2 construct: gene pykF; full length, 470 residues, 50 kDa monomer, N-terminal 6xHis tag kept, pET-28a(+), expressed in E. coli BL21(DE3), Ni-NTA purified, homotetramer
# [3] = target: T3, LDH-A (Escherichia coli, UniProt P52643, form not given, species not given); assay: direct 1H NMR kinetic assay (lactate methyl peak); details: substrate inhibition; 0.5 mM NADH, 0.04 nM enzyme, pH 7.5, 10 mM sodium phosphate, 50 mM KCl, 10 mM MgCl2, 10 °C, no ribosomes
# T3 construct: gene ldhA; commercial recombinant enzyme (Sigma-Aldrich); authors doubt its source; printed P33232 is the quinone-dependent LldD, not an NADH-dependent LDH, so identity unresolved
Compound,reduced activity [2],also measured
Nc1ncnc2c1ncn2[C@@H]1O[C@H](COP(=O)(O)OP(=O)(O)OP(=O)(O)O)[C@@H](O)[C@H]1O [ATP],,KI [1]: 5.6 ± 1.2 mM
NC[C@H]1O[C@H](O[C@H]2[C@H](O)[C@@H](O[C@H]3O[C@H](CO)[C@@H](O)[C@H](N)[C@H]3O)[C@H](N)C[C@@H]2N)[C@H](O)[C@@H](O)[C@@H]1O [Kan],"Ths, Kan and Str reduced PYK-F activity in both the presence and absence of ribosomes",
CC(=O)C(=O)O [PYR],,KI [3]: 495 ± 74.0 µM
CN[C@@H]1[C@H](O[C@H]2[C@H](O[C@H]3[C@H](O)[C@@H](O)[C@H](N=C(N)N)[C@@H](O)[C@@H]3N=C(N)N)O[C@@H](C)[C@]2(O)C=O)O[C@@H](CO)[C@H](O)[C@H]1O [Str],"Ths, Kan and Str reduced PYK-F activity in both the presence and absence of ribosomes",
